From the OligoGym collection come the findings set out here.

This series deals with HSD17B13. The conditions noted are these: ASO, HepaRG.

After the bases stand the sugars from the 5' end (letter, count) and the backbone: PS all phosphorothioate, else s phosphorothioate and o phosphodiester by linkage. Methylation of C is not given here. e = 2'-O-(2-methoxyethyl) (MOE); k = constrained ethyl (cEt); d = 2'-deoxy (DNA); m = 2'-O-methyl

GCTGTAAGAGTCAGTA (sugars k3 d10 k3, PS): the target mRNA inhibition came to 5% (0.02 µM); 0% (0.078 µM); 2% (0.313 µM); 89% (1 µM); 57% (1.25 µM); 82% (5 µM).

GCTGTACAGTAGGCAG (sugars k3 d10 k3, PS) registered a target mRNA inhibition (1 µM) of 66%. In the case of GCTTAAATGTTTAACC (sugars k3 d10 k3, PS), the target mRNA inhibition (1 µM) came to 67%.

In turn, GCTTAGTACCAAGACA (sugars k3 d10 k3, PS) had a target mRNA inhibition (1 µM) of 62%. GCTTAGTGTAGAATTG (sugars k3 d10 k3, PS) registered a target mRNA inhibition (1 µM) of 16%. Turning to GCTTATCGAGTTTAGC (sugars k3 d10 k3, PS), the target mRNA inhibition (1 µM) was 17%. As for “GCTTTTGTCCACCTTT (sugars kkdddddddddkekek, PS)”, the target mRNA inhibition is, setting by setting: (0.02 µM) 28%; (0.078 µM) 25%; (0.313 µM) 45%; (1 µM) 75%; (1.25 µM) 81%; (5 µM) 87%. In the case of GGAAATATAGAGGGTC (sugars k3 d10 k3, PS), the target mRNA inhibition (1 µM) turned out to be 50%. Same read-out and setting: the value for GGAAGATTAATCATAA (sugars k3 d10 k3, PS) was 32%. In turn, GGAATGCTCATATTAA (sugars k3 d10 k3, PS) gave a target mRNA inhibition (1 µM) of 19%. Consider GGAGTATGACAACTGG (sugars k3 d10 k3, PS), for which the target mRNA inhibition (1 µM) turned out to be 28%. As to GGATACCTGAAAAGCC (sugars k3 d10 k3, PS), the target mRNA inhibition by setting is: (0.02 µM) 2%; (0.078 µM) 0%; (0.313 µM) 38%; (1 µM) 68%; (1.25 µM) 69%; (5 µM) 77%.

Regarding GGATAGAGCACATGGC (sugars k3 d10 k3, PS), the target mRNA inhibition (1 µM) was 33%. For the sequence GGATGATGTTCATGGC (sugars k3 d10 k3, PS), the target mRNA inhibition is 4% (0.02 µM); 40% (0.078 µM); 75% (0.313 µM); 82% (1 µM); 80% (1.25 µM); 76% (5 µM). Where the note is “1 µM”, GGCCAAGGGAACACTG (sugars k3 d10 k3, PS) came in with a target mRNA inhibition of 36%. Under “1 µM”, GGCTAAACCCTGGAGC (sugars k3 d10 k3, PS) yielded a target mRNA inhibition of 36%. GGCTACTTTCAAACCT (sugars k3 d10 k3, PS) registered a target mRNA inhibition (1 µM) of 54%. With GGCTGGATATACTGTC (sugars k3 d10 k3, PS), the target mRNA inhibition (1 µM) came out at 18%.

The sequence GGGAAAAAGTGTGTTC (sugars k3 d10 k3, PS) returned a target mRNA inhibition (1 µM) of 20%. GGGAAAGAAGTCTCCT (sugars k3 d10 k3, PS): where the note is “1 µM”, the target mRNA inhibition amounted to 13%. For “GGGAGGTAGCTTTTGT (sugars k3 d9 k3 e1, PS)”, the target mRNA inhibition (1 µM) was found to be 40%. GGGAGTCGGATTATTT (sugars k3 d10 k3, PS): for the setting “1 µM”, the target mRNA inhibition was 33%. Under “1 µM”, GGGTCCATTGTTTCTT (sugars k3 d10 k3, PS) registered a target mRNA inhibition of 21%. Sequence GGTAACGGTGATCAAA (sugars k3 d10 k3, PS) had a target mRNA inhibition (1 µM) of 51%. Under “1 µM”, GGTAAGCCCCATGCCA (sugars k3 d10 k3, PS) returned a target mRNA inhibition of 38%.

With GGTAAGTATTCCATCT (sugars k3 d10 k3, PS), the target mRNA inhibition (1 µM) came out at 12%. In turn, GGTAGCTTTTGTCCAC (sugars k3 d10 k3, PS) showed a target mRNA inhibition (1 µM) of 66%.

Consider GGTCCACTTTTGGTGG (sugars k3 d10 k3, PS), for which the target mRNA inhibition (1 µM) was 13%. For “GGTGGTAACGGTGATC (sugars k3 d1 m1 d8 k3, PS)”, under “1 µM”, the target mRNA inhibition came to 35%. Still for that read-out and setting: the value for “GGTGGTAACGGTGATC (sugars k3 d9 k3 e1, PS)” was 47%. As to “GGTTGAGATAAAGCTG (sugars k3 d1 m1 d8 k3, PS)”, for the setting “1 µM”, the target mRNA inhibition worked out at 57%. For the sequence “GGTTGAGATAAAGCTG (sugars k3 d9 k3 e1, PS)”, the target mRNA inhibition (1 µM) stood at 67%. GGTTTTGATACCAGTT (sugars k3 d10 k3, PS): for the setting “1 µM”, the target mRNA inhibition was found to be 58%. The same measure, in the same setting: the value for GTAAACGACTCTGTAA (sugars k3 d10 k3, PS) was 8%; that for GTAAATTCTTGCTATC (sugars k3 d10 k3, PS) was 40%. In turn, GTAAATTGAATAGCCA (sugars k3 d10 k3, PS) came in with a target mRNA inhibition (1 µM) of 55%. Sequence “GTAACGGTGATCAAAT (sugars kkdddddddddkekek, PS)” came in with a target mRNA inhibition (1 µM) of 34%. Still for that read-out and setting: the value for GTAACTGTATTAAGAC (sugars k3 d10 k3, PS) was 54%; that for GTAAGCACAGAAGTTT (sugars k3 d10 k3, PS) was 55%; that for GTAAGGAGTAGTGGAG (sugars k3 d10 k3, PS) was 37%. In turn, GTAAGTATTCCATCTA (sugars k3 d10 k3, PS) gave a target mRNA inhibition (1 µM) of 45%. GTAATAGCCAGTACAG (sugars k3 d10 k3, PS): the target mRNA inhibition reads like this: (0.02 µM) 0%; (0.078 µM) 9%; (0.313 µM) 45%; (1 µM) 77%; (1.25 µM) 69%; (5 µM) 84%.

GTAATAGGCAGTAAAG (sugars k3 d10 k3, PS) came in with a target mRNA inhibition (1 µM) of 77%.

GTAATATTCATAGTTC (sugars k3 d10 k3, PS) registered a target mRNA inhibition (1 µM) of 49%. For the sequence GTAATCACAAGTAAGG (sugars k3 d10 k3, PS), the target mRNA inhibition came out at 0% (0.02 µM); 12% (0.078 µM); 32% (0.313 µM); 70% (1 µM); 70% (1.25 µM); 93% (5 µM). For the sequence GTAATCAGTTTTCCTC (sugars k3 d10 k3, PS), the target mRNA inhibition reads like this: (0.02 µM) 0%; (0.078 µM) 0%; (0.313 µM) 11%; (1 µM) 79%; (1.25 µM) 36%; (5 µM) 73%. Regarding GTAATCTTGAGGCAGG (sugars k3 d10 k3, PS), the target mRNA inhibition (1 µM) stood at 51%.

Under “1 µM”, GTACAGTAGGCAGTTT (sugars k3 d10 k3, PS) returned a target mRNA inhibition of 50%. As for GTACATGCCAAGCTTT (sugars k3 d10 k3, PS), for the setting “1 µM”, the target mRNA inhibition stood at 61%.

Consider GTACTATAGTATTTAC (sugars k3 d10 k3, PS), for which the target mRNA inhibition (1 µM) was found to be 27%. GTAGATGATGGTGATC (sugars k3 d10 k3, PS) registered a target mRNA inhibition (1 µM) of 36%.

As for “GTAGCTTTTGTCCACC (sugars k3 d1 m1 d8 k3, PS)”, the target mRNA inhibition (1 µM) was determined as 64%. Still for that read-out and setting: the value for GTAGCTTTTGTCCACC (sugars k3 d10 k3, PS) was 63%; that for GTAGGAGTAGATGATG (sugars k3 d10 k3, PS) was 7%; that for GTAGTGGGAGTCGGAT (sugars k3 d10 k3, PS) was 48%. Take GTATAAATGGCAATTC (sugars k3 d10 k3, PS): where the note is “1 µM”, the target mRNA inhibition worked out at 56%.

Sequence “GTATAGTTATCTTCTC (sugars kkkdddddkdddkkke, PS)” showed a target mRNA inhibition (1 µM) of 68%. For the sequence GTATGGTAAGCCCCAT (sugars k3 d10 k3, PS), the target mRNA inhibition (1 µM) was found to be 36%. In the case of “GTATGTTTATGTAAGC (sugars k3 d1 m1 d8 k3, PS)”, the target mRNA inhibition by setting is: (0.02 µM) 0%; (0.078 µM) 0%; (0.313 µM) 10%; (1 µM) 66%; (1.25 µM) 72%; (5 µM) 90%. As for “GTATGTTTATGTAAGC (sugars kkdddddddddkekek, PS)”, the target mRNA inhibition runs as follows: (0.02 µM) 11%; (0.078 µM) 27%; (0.313 µM) 53%; (1 µM) 72%; (1.25 µM) 63%; (5 µM) 68%.

GTATTAAGACAGTTGA (sugars k3 d10 k3, PS) had a target mRNA inhibition (1 µM) of 45%. For the sequence “GTATTCCATCTATCAG (sugars kkdddddddddkekek, PS)”, the target mRNA inhibition (1 µM) stood at 48%. On to GTATTTCGCTACTGTA (sugars k3 d10 k3, PS), for which the target mRNA inhibition by setting is: (0.02 µM) 0%; (0.078 µM) 0%; (0.313 µM) 24%; (1 µM) 76%; (1.25 µM) 64%; (5 µM) 86%. Take GTCAAAAACCGTCAAA (sugars k3 d10 k3, PS): the target mRNA inhibition (1 µM) was determined as 39%. Take “GTCACCTTTCATAATG (sugars kkdddddddddkekek, PS)”: the target mRNA inhibition (1 µM) came to 4%.

As for GTCCAGAAGTATGTGA (sugars k3 d10 k3, PS), the target mRNA inhibition (1 µM) was determined as 9%. GTCCAGGTTGAGATAA (sugars k3 d10 k3, PS) displayed a target mRNA inhibition (1 µM) of 60%. Same read-out and setting: the value for GTCCTAGGATGTTGAC (sugars k3 d10 k3, PS) was 1%. For the sequence GTCCTTGTGTAGTCCT (sugars k3 d10 k3, PS), the target mRNA inhibition (1 µM) turned out to be 62%.

The sequence “GTCGGTCACCTTTCAT (sugars k3 d1 m1 d8 k3, PS)” returned a target mRNA inhibition (1 µM) of 66%. On to GTCGGTCACCTTTCAT (sugars k3 d10 k3, PS), for which the target mRNA inhibition runs as follows: (0.02 µM) 16%; (0.078 µM) 37%; (0.313 µM) 57%; (1 µM) 85%; (1.25 µM) 82%; (5 µM) 90%. Where the note is “1 µM”, “GTCTAAACATCTCTGG (sugars k3 d9 k3 e1, PS)” registered a target mRNA inhibition of 49%. Where the note is “1 µM”, “GTCTAAACATCTCTGG (sugars kkdddddddddkekek, PS)” came in with a target mRNA inhibition of 50%.
